The values below come from patent publication US20170283458A1, “COLLAGEN-BINDING SYNTHETIC PEPTIDOGLYCANS FOR WOUND HEALING” (Symic Biomedical, Inc., priority 2009, published 2017).

Ends that are not written are not given here.

In data set [1] the test system is Human coronary artery smooth muscle cells (HCA SMC). Nature of the data set: Gel compaction by smooth muscle cells in collagen gels. Format: cell-based. The note with it: Days 3 and 5. On the procedure:
Human coronary artery smooth muscle cells (HCA SMC) (Cascade Biologics) were cultured in growth medium (Medium 231 supplemented with smooth muscle growth factor). Cells from passage 3 were used for all experiments. Differentiation medium (Medium 231 supplemented with 1% FBS and 1× pen/strep) was used for all experiments unless otherwise noted.
Collagen gels were prepared with each additive as described with the exception that the 1×PBS example addition was omitted to accommodate the addition of cells in media. After incubating on ice for 30 min, HCA SMCs in differentiation medium were added to the gel solutions to a final concentration of 1×10^6 cells/mL. Gels were formed in quadruplicate in 48-well non-tissue culture treated plates (Costar) for 6 hrs before adding 500 μL/well differentiation medium. Gels were freed from the well edges after 24 hrs. Medium was changed every 2-3 days and images for compaction were taken at the same time points using a Gel Doc System (Bio-Rad). The cross-sectional area of circular gels correlating to degree of compaction was determined using ImageJ software (NIH). Gels containing no cells were used as a negative control and cells in collagen gels absent additive were used as a positive control. […] By day 10 all gels had compacted to approximately 10% of the original gel area, and differences between additives were small.

For a further data set, the system named is Long-Evans rats. Nature of the data set: Rat incisional model, visual scar scoring (visible scar length). Format: in vivo. How it is done:
Using sterile techniques, longitudinal wounds were incised on shaved dorsal skin of the rats. A 4 cm incision was cut through the panniculus down to the skeletal musculature, and a 250 μL single dose of either 10 mg/mL hyaluronic acid (HA) or HA+DS-SILY was applied to the open wound by a syringe. DS-SILY was tested at 0.5, 1, and 2.5 mg/mL mixed with HA. The incision was then sutured closed and animals were returned to individual cages and monitored for complications. Negative control rats received no treatment and were treated identically. A pilot study was performed (n=3) at time points 3, 7, 10, 14, and 21 days, followed by a higher powered study (n=9) for 21 and 28 day time points.
Photographs of scars were taken at the time of necropsy using a digital camera with predetermined manual settings mounted on a camera stand to standardize focal distance
(FIG. 36). A scale bar was included in each image and was used to determine the visible scar length. At the 21 and 28-day times points, five blinded observers traced the visible scar length using ImageJ software (NIH) to give a quantitative measure of visual scar healing.

For another data set, the target named is T1, collagen (Bos taurus, UniProt P02453+P02465).
T1 construct: purchased Inamed, Freemont, Calif; Nutragen
T1 sequence (P02453 162-1217 limits assumed): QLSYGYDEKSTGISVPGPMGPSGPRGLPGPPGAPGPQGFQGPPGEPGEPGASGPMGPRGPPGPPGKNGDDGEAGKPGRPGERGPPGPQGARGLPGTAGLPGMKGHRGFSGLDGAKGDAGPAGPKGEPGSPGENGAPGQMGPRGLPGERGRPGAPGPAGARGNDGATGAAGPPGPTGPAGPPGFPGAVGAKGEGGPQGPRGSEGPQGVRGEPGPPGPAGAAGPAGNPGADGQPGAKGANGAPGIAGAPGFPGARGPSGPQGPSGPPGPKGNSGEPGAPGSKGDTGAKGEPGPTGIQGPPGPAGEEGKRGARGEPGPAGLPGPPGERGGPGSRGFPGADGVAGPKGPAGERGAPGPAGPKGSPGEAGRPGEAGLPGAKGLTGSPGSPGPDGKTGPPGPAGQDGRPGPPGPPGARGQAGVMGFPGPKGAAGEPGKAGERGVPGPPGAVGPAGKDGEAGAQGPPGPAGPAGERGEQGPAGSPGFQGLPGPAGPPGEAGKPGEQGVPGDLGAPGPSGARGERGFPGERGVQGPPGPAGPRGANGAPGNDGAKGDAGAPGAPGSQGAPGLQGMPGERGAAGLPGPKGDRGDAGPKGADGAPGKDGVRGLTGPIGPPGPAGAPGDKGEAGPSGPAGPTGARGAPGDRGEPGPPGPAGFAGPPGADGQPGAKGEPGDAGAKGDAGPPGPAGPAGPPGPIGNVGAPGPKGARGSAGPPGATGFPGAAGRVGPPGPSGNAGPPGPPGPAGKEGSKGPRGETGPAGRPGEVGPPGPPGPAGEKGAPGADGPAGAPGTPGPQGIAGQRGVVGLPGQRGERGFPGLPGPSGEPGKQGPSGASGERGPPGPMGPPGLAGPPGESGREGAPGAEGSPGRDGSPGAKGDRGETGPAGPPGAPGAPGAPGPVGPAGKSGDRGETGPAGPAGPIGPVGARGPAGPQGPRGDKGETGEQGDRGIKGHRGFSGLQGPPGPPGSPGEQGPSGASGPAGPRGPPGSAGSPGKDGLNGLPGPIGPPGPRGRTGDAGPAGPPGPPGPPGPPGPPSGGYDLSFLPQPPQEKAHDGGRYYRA
T1 sequence (P02465 80-1117 limits assumed): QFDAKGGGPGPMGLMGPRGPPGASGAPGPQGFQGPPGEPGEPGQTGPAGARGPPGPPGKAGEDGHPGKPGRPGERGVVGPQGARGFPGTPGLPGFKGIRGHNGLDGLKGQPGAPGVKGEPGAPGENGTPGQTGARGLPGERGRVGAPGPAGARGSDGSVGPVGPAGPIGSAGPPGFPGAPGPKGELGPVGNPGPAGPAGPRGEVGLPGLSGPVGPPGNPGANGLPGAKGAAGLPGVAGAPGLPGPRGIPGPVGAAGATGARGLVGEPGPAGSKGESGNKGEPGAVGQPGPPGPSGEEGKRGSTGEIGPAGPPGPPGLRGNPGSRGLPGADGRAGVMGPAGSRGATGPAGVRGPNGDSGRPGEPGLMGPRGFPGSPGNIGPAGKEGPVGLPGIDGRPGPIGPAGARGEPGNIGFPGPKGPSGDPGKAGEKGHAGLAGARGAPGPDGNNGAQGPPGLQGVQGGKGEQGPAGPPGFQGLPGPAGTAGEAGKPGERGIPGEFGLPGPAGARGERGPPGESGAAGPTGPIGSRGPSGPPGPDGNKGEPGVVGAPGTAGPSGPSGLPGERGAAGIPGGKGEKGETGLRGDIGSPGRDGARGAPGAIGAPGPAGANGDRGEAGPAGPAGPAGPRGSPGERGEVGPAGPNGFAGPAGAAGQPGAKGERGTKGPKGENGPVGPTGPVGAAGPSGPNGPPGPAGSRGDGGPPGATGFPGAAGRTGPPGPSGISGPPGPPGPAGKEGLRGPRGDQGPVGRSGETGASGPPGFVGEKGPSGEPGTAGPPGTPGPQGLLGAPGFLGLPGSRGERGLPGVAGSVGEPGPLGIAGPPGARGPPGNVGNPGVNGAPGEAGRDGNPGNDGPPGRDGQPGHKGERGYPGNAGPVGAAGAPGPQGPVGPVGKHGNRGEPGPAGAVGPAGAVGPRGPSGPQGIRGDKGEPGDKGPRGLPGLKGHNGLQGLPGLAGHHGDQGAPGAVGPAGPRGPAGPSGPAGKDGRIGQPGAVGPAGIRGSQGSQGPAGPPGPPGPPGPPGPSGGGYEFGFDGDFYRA
Nature of the data set: Fibrillogenesis turbidity assay (absorbance at 313 nm). It is filed as biochemical. The note with it: 4 mg/mL collagen, 10:1 collagen:treatment unless otherwise indicated. How it is done:
(§1) Gels were made with Nutragen collagen (Inamed, Freemont, Calif.) at a final concentration of 4 mg/mL collagen. Nutragen stock is 6.4 mg/mL in 10 mM HCl. Gel preparation was performed on ice, and fresh samples were made before each test. The collagen solution was adjusted to physiologic pH and salt concentration, by adding appropriate volumes of 10×PBS (phosphate buffered saline), 1×PBS, and 1M NaOH. For most experiments, samples of DS, decorin, DS-SILY, or DS-Dc13 were added at a 10:1 collagen:treatment molar ratio by a final 1×PBS addition (equal volumes across treatments) in which the test samples were dissolved at appropriate concentrations. In this way, samples are constantly kept at pH 7.4 and physiologic salt concentration. Collagen-alone samples received a 1×PBS addition with no sample dissolved. Fibrillogenesis will be induced by incubating neutralized collagen solutions at 37° C. overnight in a humidified chamber to avoid dehydration. Gel solutions with collagen:treatment molar ratios of other than 10:1 were prepared similarly.
Collagen fibrillogenesis was monitored by measuring turbidity related absorbance at 313 nm providing information on rate of fibrillogenesis and fibril diameter. Gel solutions were prepared as described in EXAMPLE 16 (4 mg/mL collagen, 10:1 collagen:treatment, unless otherwise indicated) and 50 uL/well were added at 4° C. to a 384-well plate. The plate was kept at 4° C. for 4 hours before initiating fibril formation. A SpectraMax M5 at 37° C. was used to measure absorbance at 313 nm at 30 s intervals for 6 hours.
A fibrillogenesis assay as described for DS-SILY, EXAMPLE 19, performed with the conjugate DS-Dc13.

In the next data set the target is T2, collagen I (Bos taurus, UniProt P02453+P02465).
T2 construct: purchased Inamed, Freemont, Calif; Nutragen
T2 sequence (P02453 162-1217 limits assumed): as the sequence (P02453 162-1217 limits assumed) above
T2 sequence (P02465 80-1117 limits assumed): as the sequence (P02465 80-1117 limits assumed) above
Briefly: Cryo-SEM measurements on collagen I, fibril diameter. Format: biochemical. The following applies: 4 mg/mL collagen, 10:1 collagen:treatment, cryo-SEM 20,000×. How it is done: as §1
Gels for cryo-SEM were formed, as in EXAMPLE 16, directly on the SEM stage and incubated at 37° C. overnight. The stages were then secured in a cryo-holder and plunged into liquid nitrogen slush. Samples were then transferred to a Gatan Alto 2500 pre-chamber cooled to −170° C. under vacuum. A free-break surface was created with a cooled scalpel, and each sample evaporated under sublimation conditions for 20 min. The sample was coated by platinum sputter coating for 120 s. Samples were transferred to the cryo-stage at −130° C. and regions with similar orientation were imaged for comparison across treatments. Analysis of the images was performed to determine the fibril diameter distribution, presented in histograms adjacent the corresponding image in FIG. 14, and average fibril diameter, FIG. 17 an 18;. Fibril diameter was calculated using ImageJ software (NIH) measuring individual fibrils by hand (drawing a line across fibrils and measuring its length after properly setting the scale). At least 45 independent fibril measurement were recorded for average fibril diameter calculations.

As to “DS-SILY: collagen-binding peptidoglycan in which a single SILY peptide was conjugated to dermatan sulfate via PDPH (RRANAALKAGELYKSILYGC; also: single peptide conjugated to dermatan sulfate via PDPH, site not given here)”, the “gel compaction at early time points” value in data set [1] is “significantly compacted more than gels made of collagen alone or collagen with dermatan sulfate”. Also, the visible scar length entry with Long-Evans rats (21 days, both doses (0.125 mg, 0.25 mg)) is “decreased visible scar length measured by 5 blinded observers was significant”; in the data set on Long-Evans rats (28 days, high dose (0.25 mg)), “not significant at 28 days compared to HA control”. Also, in the data set with collagen, the rate of fibrillogenesis entry is listed as “decrease the rate of fibrillogenesis”. Further, in the data set with collagen I, the average fibril diameter result is recorded as “significant decrease in average fibril diameter”.
